# In US12054486B2, “Pyridine derivatives and their use as sodium channel activators” (Xenon Pharmaceuticals Inc., priority 2021, dated 2024):
# Structures can show the parent of a compound that is named as a salt.
# Biological target: sodium channel isoforms of interest stably expressed in Human Embryonic Kidney Cells (voltage-gated sodium channel, particularly NaV1.1) (Homo sapiens, UniProt P35498)
# Experiment: automated planar patch clamp assay of sodium channel gating (area under the sodium current trace)
# Assay type: cell-based
# Conditions: HEK cells, voltage step from −120 mV to 0 mV, increasing concentrations
# Description: A typical assay described in Crestey, F. et al., ACS Chem Neurosci (2015), Vol. 6, pp. 1302-1308, AA43279 (Frederiksen, K. et al., Eur J Neurosci (2017), Vol. 46, pp. 1887-1896) and Lu AE98134 (von Schoubyea, N. L. et al., Neurosci Lett (2018), Vol. 662, pp. 29-35) employs the use of automated planar patch clamp techniques to study the effects of the chemical agent on the gating of sodium channels. The sodium channel isoforms of interest are stably expressed in Human Embryonic Kidney Cells and the currents that flow through those channels in response to a depolarizing voltage clamp step from −120 mV to 0 mV are measured in the presence of increasing concentrations of the chemical agents. The area under the sodium current trace which correlates to the magnitude of sodium flux through the cell membrane is used to quantify the effects on gating of the channels. Other parameters that are measured in the assay include the peak current, time constant of open state inactivation and the voltage dependence of steady state inactivation properties. The concentration responses are used to determine potency of each chemical agents effects on modulating the sodium channel isoform gating. Such techniques are known to those skilled in the art, and may be developed, using current technologies, into low or medium throughput assays for evaluating compounds for their ability to modulate sodium channel behaviour.
# As disclosed above, typical assays for testing compounds of the disclosure are known, for example as disclosed in Crestey, F. et al., ACS Chem Neurosci (2015), Vol. 6, pp. 1302-1308, AA43279 (Frederiksen, K. et al., Eur J Neurosci (2017), Vol. 46, pp. 1887-1896) and Lu AE98134 (von Schoubyea, N. L. et al., Neurosci Lett (2018), Vol. 662, pp. 29-35) which employs the use of automated planar patch clamp techniques to study the effects of the chemical agent on the gating of sodium channels. The sodium channel isoforms of interest are stably expressed in Human Embryonic Kidney Cells and the currents that flow through those channels in response to a depolarizing voltage clamp step from −120 mV to 0 mV are measured in the presence of increasing concentrations of the chemical agents. The area under the sodium current trace which correlates to the magnitude of sodium flux through the cell membrane is used to quantify the effects on gating of the channels. Other parameters that are measured in the assay include the peak current, time constant of open state inactivation and the voltage dependence of steady state inactivation properties. The concentration responses are used to determine potency of each chemical agents effects on modulating the sodium channel isoform gating.
Compound,EC50 [µM],Empirical Emax
"F[C@H]1CCN(c2nccc(-c3ccccc3)c2-c2nc3c([nH]2)CN(Cc2ccccc2)CC3)C1 [Example 42, (S)-5-benzyl-2-(2-(3-fluoropyrrolidin-1-yl)-4-phenylpyridin-3-yl)-4,5,6,7-tetrahydro-3H-imidazo[4,5-c]pyridine]",< 1,++ (++ indicates a value from 2.0 up to 5.0 μM)
"Cc1[nH]c(-c2c(-c3ccccc3)ccnc2N2CC[C@H](F)C2)nc1Br [Example 27, (S)-3-(4-bromo-5-methyl-1H-imidazol-2-yl)-2-(3-fluoropyrrolidin-1-yl)-4-phenylpyridine]",1 to 10,++ (++ indicates a value from 2.0 up to 5.0 μM)
"Fc1ccc(F)c(-c2ccnc(N3CC[C@H](F)C3)c2-c2nc3cnc(Cl)cc3[nH]2)c1 [Example 1, (S)-6-chloro-2-(4-(2,5-difluorophenyl)-2-(3-fluoropyrrolidin-1-yl)pyridin-3-yl)-1H-imidazo[4,5-c]pyridine]",< 1,++++ (++++ indicates a value greater than 7.5)
"c1ccc(-c2ccnc(N3CCCC3)c2-c2nc3c([nH]2)COCC3)cc1 [Example 44, 2-(4-phenyl-2-(pyrrolidin-1-yl)pyridin-3-yl)-3,4,6,7-tetrahydropyrano[3,4-d]imidazole]",1 to 10,+++ (+++ indicates a value from 5.0 up to 7.5 μM)
"F[C@H]1CCN(c2nccc(-c3ccccc3)c2-c2nc(-c3ccccc3)n[nH]2)C1 [Example 69, (S)-2-(3-fluoropyrrolidin-1-yl)-4-phenyl-3-(3-phenyl-1H-1,2,4-triazol-5-yl)pyridine]",1 to 10,++ (++ indicates a value from 2.0 up to 5.0 μM)
"CC(C)CC1CN=C(c2c(-c3ccccc3F)ccnc2N2CCCC2)N1 (stereo not drawn) [Example 5, 4-(2-fluorophenyl)-3-(5-isobutyl-4,5-dihydro-1H-imidazol-2-yl)-2-(pyrrolidin-1-yl)pyridine]",1 to 10,+ (+ indicates a value less than 2.0 μM)
"Cc1ccccc1-c1ccnc(N2CCOCC2)c1-c1nc2ccccc2[nH]1 [Example 8, 4-(3-(1H-benzo[d]imidazol-2-yl)-4-(o-tolyl)pyridin-2-yl)morpholine]",10 to 50,+++ (+++ indicates a value from 5.0 up to 7.5 μM)
"COC1CCc2nc(-c3c(-c4ccccc4)ccnc3N3CC[C@H](F)C3)[nH]c2C1 (stereo partly drawn) [Example 58, 2-(2-((S)-3-fluoropyrrolidin-1-yl)-4-phenylpyridin-3-yl)-6-methoxy-4,5,6,7-tetrahydro-1H-benzo[d]imidazole]",1 to 10,++ (++ indicates a value from 2.0 up to 5.0 μM)
"F[C@H]1CCN(c2nccc(-c3ccccc3)c2-c2nc3c([nH]2)CNCC3)C1 [Example 35, (S)-2-(2-(3-fluoropyrrolidin-1-yl)-4-phenylpyridin-3-yl)-4,5,6,7-tetrahydro-3H-imidazo[4,5-c]pyridine 2,2,2-trifluoroacetic Acid Salt (Free Acid)]",≥ 50,+ (+ indicates a value less than 2.0 μM)
"c1ccc(-c2ccnc(N3CCCC3)c2-c2nc3ccccc3[nH]2)nc1 [Example 10, 2-(2′-(pyrrolidin-1-yl)-[2,4′-bipyridin]-3′-yl)-1H-benzo[d]imidazole]",10 to 50,++ (++ indicates a value from 2.0 up to 5.0 μM)
"F[C@H]1CCN(c2nccc(-c3ccccc3)c2C2=N[C@@H]3CCCC[C@H]3N2)C1 [Example 24, (3aR,7aR)-2-(2-((S)-3-fluoropyrrolidin-1-yl)-4-phenylpyridin-3-yl)-3a,4,5,6,7,7a-hexahydro-1H-benzo[d]imidazole]",1 to 10,+ (+ indicates a value less than 2.0 μM)
"Fc1ccccc1-c1ccnc(N2CCCC2)c1-c1nc2ncccc2[nH]1 [Example 2, 2-(4-(2-fluorophenyl)-2-(pyrrolidin-1-yl)pyridine-3-yl)-1H-imidazo[4,5-b]pyridine]",1 to 10,++++ (++++ indicates a value greater than 7.5)
"OC1Cc2nc(-c3c(-c4ccccc4)ccnc3N3CCC(F)(F)C3)[nH]c2C1 [Example 63, 2-(2-(3,3-difluoropyrrolidin-1-yl)-4-phenylpyridin-3-yl)-1,4,5,6-tetrahydrocyclopenta[d]imidazol-5-ol]",1 to 10,++ (++ indicates a value from 2.0 up to 5.0 μM)
"Cn1cc2nc(-c3c(-c4ccccc4F)ccnc3N3CCC(F)(F)C3)[nH]c2n1 [Example 80, 5-[2-(3,3-difluoropyrrolidin-1-yl)-4-(2-fluorophenyl)-3-pyridyl]-2-methyl-4H-imidazo[4,5-c]pyrazole]",1 to 10,+++ (+++ indicates a value from 5.0 up to 7.5 μM)
"Fc1cccc(-c2ccnc(N3CCC(F)(F)C3)c2-c2nc3c([nH]2)CCOC3)c1F [Example 77, 2-[4-(2,3-difluorophenyl)-2-(3,3-difluoropyrrolidin-1-yl)-3-pyridyl]-1,4,6,7-tetrahydropyrano[3,4-d]imidazole]",< 1,++++ (++++ indicates a value greater than 7.5)
"FC1(F)CCN(c2nccc(-c3ccccc3)c2-c2nc3c([nH]2)COCC3)C1 [Example 43, 2-(2-(3,3-difluoropyrrolidin-1-yl)-4-phenylpyridin-3-yl)-3,4,6,7-tetrahydropyrano[3,4-d]imidazole]",< 1,+++ (+++ indicates a value from 5.0 up to 7.5 μM)
"Fc1ccc(F)c(-c2ccnc(N3CCC(F)(F)C3)c2-c2nc3c([nH]2)CCOC3)c1 [Example 73, 2-[4-(2,5-difluorophenyl)-2-(3,3-difluoropyrrolidin-1-yl)-3-pyridyl]-1,4,6,7-tetrahydropyrano[3,4-d]imidazole]",< 1,+++ (+++ indicates a value from 5.0 up to 7.5 μM)
"CN1CCc2nc(-c3c(-c4ccccc4)ccnc3N3CC[C@H](F)C3)[nH]c2C1 [Example 36, (S)-2-(2-(3-fluoropyrrolidin-1-yl)-4-phenylpyridin-3-yl)-5-methyl-4,5,6,7-tetrahydro-3H-imidazo[4,5-c]pyridine]",10 to 50,+ (+ indicates a value less than 2.0 μM)
"FC1(F)CC2(CN(c3nccc(-c4ccccc4)c3-c3nc4c([nH]3)COCC4)C2)C1 [Example 50, 2-(2-(6,6-difluoro-2-azaspiro[3.3]heptan-2-yl)-4-phenylpyridin-3-yl)-3,4,6,7-tetrahydropyrano[3,4-d]imidazole]",10 to 50,++ (++ indicates a value from 2.0 up to 5.0 μM)
"FC(F)(F)C1CCN(c2nccc(-c3ccccc3)c2-c2nc3c([nH]2)COCC3)C1 (stereo not drawn) [Example 47, 2-(4-phenyl-2-(3-(trifluoromethyl)pyrrolidin-1-yl)pyridin-3-yl)-3,4,6,7-tetrahydropyrano[3,4-d]imidazole]",1 to 10,+++ (+++ indicates a value from 5.0 up to 7.5 μM)
"CCCCNc1nnc(-c2c(-c3ccccc3F)ccnc2N2CC[C@H](F)C2)o1 [Example 12, (S)—N-butyl-5-(4-(2-fluorophenyl)-2-(3-fluoropyrrolidin-1-yl)pyridin-3-yl)-1,3,4-oxadiazol-2-amine]",10 to 50,++ (++ indicates a value from 2.0 up to 5.0 μM)
